Measurements: PMC4710522, “A Novel Triazolopyridine-Based Spleen Tyrosine Kinase Inhibitor That Arrests Joint Inflammation” (PLoS ONE, 2016)

Columns and labels:
[1] = target: T1, PKC-eta_h (Homo sapiens, UniProt P24723); assay: SelectScreen kinase assay; type: biochemical; details: KM ATP, read-out: % control
T1 construct: purchased Life Technologies (Invitrogen) SelectScreen, Z'-LYTE / Adapta

[2] = target: T2, IRR_h (Homo sapiens, UniProt P14616); assay: SelectScreen kinase assay; type: biochemical; details: KM ATP, read-out: % control
T2 construct: purchased Life Technologies (Invitrogen) SelectScreen, Z'-LYTE / Adapta
Summary of the method: (§1)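 Kinase activity measured by Z'-Lyte or Adapta protocols. Single-point testing used 3 µM compound with ATP at the enzyme's KM, or at 10 or 100 µM as indicated. Values given as % control versus DMSO-only wells (100%).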

[3] = target: T3, MAPK1_h (Homo sapiens, UniProt P28482); assay: SelectScreen kinase assay; type: biochemical; details: KM ATP, read-out: % control
T3 construct: purchased Life Technologies (Invitrogen) SelectScreen, Z'-LYTE / Adapta
Summary of the method: as §1

[4] = target: T4, ErbB4_h (Homo sapiens, UniProt Q15303); assay: SelectScreen kinase assay; type: biochemical; details: KM ATP, read-out: % control
T4 construct: purchased Life Technologies (Invitrogen) SelectScreen, Z'-LYTE / Adapta
Summary of the method: as §1

[5] = target: T5, CK1-gamma2_h (Homo sapiens, UniProt P78368); assay: SelectScreen kinase assay; type: biochemical; details: KM ATP, read-out: % control
T5 construct: purchased Life Technologies (Invitrogen) SelectScreen, Z'-LYTE / Adapta
Summary of the method: as §1

[6] = target: T6, p38-alpha_h (Homo sapiens, UniProt Q16539); assay: SelectScreen kinase assay; type: biochemical; details: 100 µM ATP, read-out: % control
T6 construct: purchased Life Technologies (Invitrogen) SelectScreen, Z'-LYTE / Adapta
Summary of the method: as §1

[7] = target: T7, CSK_h (Homo sapiens, UniProt P41240); assay: SelectScreen kinase assay; type: biochemical; details: KM ATP, read-out: % control
T7 construct: purchased Life Technologies (Invitrogen) SelectScreen, Z'-LYTE / Adapta
Summary of the method: as §1

[8] = target: T8, Abl_h (Homo sapiens, UniProt P00519); assay: SelectScreen kinase assay; type: biochemical; details: KM ATP, read-out: % control
T8 construct: purchased Life Technologies (Invitrogen) SelectScreen, Z'-LYTE / Adapta
Summary of the method: as §1

[9] = target: T9, HIPK4_h (Homo sapiens, UniProt Q8NE63); assay: SelectScreen kinase assay; type: biochemical; details: KM ATP, read-out: % control
T9 construct: purchased Life Technologies (Invitrogen) SelectScreen, Z'-LYTE / Adapta
Summary of the method: as §1

[10] = target: T10, EphB1_h (Homo sapiens, UniProt P54762); assay: SelectScreen kinase assay; type: biochemical; details: KM ATP, read-out: % control
T10 construct: purchased Life Technologies (Invitrogen) SelectScreen, Z'-LYTE / Adapta
Summary of the method: as §1

[11] = target: T11, IKK-beta_h (Homo sapiens, UniProt O14920); assay: SelectScreen kinase assay; type: biochemical; details: KM ATP, read-out: % control
T11 construct: purchased Life Technologies (Invitrogen) SelectScreen, Z'-LYTE / Adapta
Summary of the method: as §1

[12] = target: T12, Tel-Syk fusion protein in HEK293 cells (Homo sapiens, UniProt P41212+P43405); assay: Tel-Syk biomarker assay (in-cell western, Syk Y525/526 phosphorylation); type: cell-based
T12 construct: human Syk (NM_003177.5) kinase domain corresponding to amino acids 341–612; myristoylation motif (N); expressed in transfected cells
Experimental: HEK293 T-REx™ (Life Technologies, Grand Island, NY) stably transfected with human TEL-Syk (cloned as described prior section DNA constructs) were plated on black poly-D-lysine coated 96-well plates (BD Biosciences, San Diego, CA) in culture media containing tetracycline-free fetal bovine serum (Clontech, MountainView, CA) for 16 hours in a tissue culture incubator. Tel-Syk expression was induced for 6 hours in fresh growth media containing 1 μg/ml tetracycline (Sigma Chemicals, St. Louis, MO). […] Plates were blocked with Odyssey Blocking Buffer for 90 minutes at room temperature and incubated overnight at 4°C on a rotating platform with rabbit phospho-Syk (1:1000) and mouse V5 (1:2500) primary antibodies diluted in Odyssey Blocking Buffer. The plates were washed 5 times with 1X PBS + 0.1% Tween-20, incubated for 1 hour at room temperature with anti-rabbit IR680 (1:1000) and anti-mouse IR800CW (1:1000) secondary antibodies diluted in Odyssey Blocking Buffer, and washed 5 additional times with 1X PBS + 0.1% Tween-20 at room temperature. The plates were scanned on the Li-Cor Odyssey instrument (Li-Cor Biosciences, Lincoln, NE) in the 700 and 800 channels.
For the TEL-Syk assay, the intensity values for the 700 and 800 channel were exported as text files in ActivityBase (IDBS, Guildford, UK) to derive the ratios that reflect kinase activity. […]

[13] = target: T13, MSK2_h (Homo sapiens, UniProt O75676); assay: SelectScreen kinase assay; type: biochemical; details: KM ATP, read-out: % control
T13 construct: purchased Life Technologies (Invitrogen) SelectScreen, Z'-LYTE / Adapta

[14] = tested on: rat passive cutaneous anaphylaxis model; details: 10 mg/kg dose; cited from earlier work

T5 sequence (P78368 whole entry): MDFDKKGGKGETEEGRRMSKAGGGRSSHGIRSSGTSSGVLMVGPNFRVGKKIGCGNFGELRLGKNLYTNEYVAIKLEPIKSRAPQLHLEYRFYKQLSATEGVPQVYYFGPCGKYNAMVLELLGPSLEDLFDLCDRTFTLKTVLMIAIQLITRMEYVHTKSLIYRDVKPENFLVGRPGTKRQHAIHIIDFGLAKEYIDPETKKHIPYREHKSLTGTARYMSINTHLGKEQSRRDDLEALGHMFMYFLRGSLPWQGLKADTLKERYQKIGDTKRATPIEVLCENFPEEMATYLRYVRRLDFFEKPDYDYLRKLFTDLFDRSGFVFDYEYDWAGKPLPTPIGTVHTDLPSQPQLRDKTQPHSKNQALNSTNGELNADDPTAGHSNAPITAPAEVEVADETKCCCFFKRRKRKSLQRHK
T8 sequence (P00519 whole entry): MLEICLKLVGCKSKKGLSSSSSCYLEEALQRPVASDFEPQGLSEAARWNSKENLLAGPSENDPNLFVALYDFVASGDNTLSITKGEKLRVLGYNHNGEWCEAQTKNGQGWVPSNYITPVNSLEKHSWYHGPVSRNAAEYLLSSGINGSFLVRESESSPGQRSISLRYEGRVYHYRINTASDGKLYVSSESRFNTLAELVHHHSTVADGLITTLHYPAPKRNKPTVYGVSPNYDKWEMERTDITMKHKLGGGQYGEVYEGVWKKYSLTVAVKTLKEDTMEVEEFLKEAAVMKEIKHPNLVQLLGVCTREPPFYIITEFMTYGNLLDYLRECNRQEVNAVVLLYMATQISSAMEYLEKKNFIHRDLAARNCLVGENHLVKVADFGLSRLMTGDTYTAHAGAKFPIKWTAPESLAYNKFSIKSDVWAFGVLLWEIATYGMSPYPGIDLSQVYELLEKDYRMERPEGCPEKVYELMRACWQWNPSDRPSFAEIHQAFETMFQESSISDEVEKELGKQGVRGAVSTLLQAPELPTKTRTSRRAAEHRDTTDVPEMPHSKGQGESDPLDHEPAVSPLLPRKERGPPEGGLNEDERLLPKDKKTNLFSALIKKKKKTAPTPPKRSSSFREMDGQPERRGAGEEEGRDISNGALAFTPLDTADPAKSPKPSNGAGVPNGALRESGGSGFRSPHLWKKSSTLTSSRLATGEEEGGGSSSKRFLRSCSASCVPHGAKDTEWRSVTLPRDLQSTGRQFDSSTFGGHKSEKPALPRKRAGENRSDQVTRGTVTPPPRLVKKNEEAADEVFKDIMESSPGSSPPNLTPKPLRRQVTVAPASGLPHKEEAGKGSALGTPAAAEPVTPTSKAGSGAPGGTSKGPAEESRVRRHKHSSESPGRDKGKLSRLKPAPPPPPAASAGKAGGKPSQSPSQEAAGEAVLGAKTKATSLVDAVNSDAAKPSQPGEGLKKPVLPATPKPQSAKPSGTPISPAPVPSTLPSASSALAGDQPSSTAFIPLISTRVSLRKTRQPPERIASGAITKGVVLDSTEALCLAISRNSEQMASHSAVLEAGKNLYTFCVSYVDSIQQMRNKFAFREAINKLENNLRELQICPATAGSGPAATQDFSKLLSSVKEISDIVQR
T6 sequence (Q16539 whole entry): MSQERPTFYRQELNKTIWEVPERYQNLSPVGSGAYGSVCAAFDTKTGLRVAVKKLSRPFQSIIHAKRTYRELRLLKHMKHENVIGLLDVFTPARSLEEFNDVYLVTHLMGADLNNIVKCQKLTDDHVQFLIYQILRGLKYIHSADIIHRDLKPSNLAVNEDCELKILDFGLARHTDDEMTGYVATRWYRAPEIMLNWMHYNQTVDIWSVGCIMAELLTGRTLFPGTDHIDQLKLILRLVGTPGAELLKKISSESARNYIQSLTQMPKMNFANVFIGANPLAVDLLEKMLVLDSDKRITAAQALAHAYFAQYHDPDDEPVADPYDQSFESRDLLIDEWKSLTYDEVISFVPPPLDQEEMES
T13 sequence (O75676 whole entry): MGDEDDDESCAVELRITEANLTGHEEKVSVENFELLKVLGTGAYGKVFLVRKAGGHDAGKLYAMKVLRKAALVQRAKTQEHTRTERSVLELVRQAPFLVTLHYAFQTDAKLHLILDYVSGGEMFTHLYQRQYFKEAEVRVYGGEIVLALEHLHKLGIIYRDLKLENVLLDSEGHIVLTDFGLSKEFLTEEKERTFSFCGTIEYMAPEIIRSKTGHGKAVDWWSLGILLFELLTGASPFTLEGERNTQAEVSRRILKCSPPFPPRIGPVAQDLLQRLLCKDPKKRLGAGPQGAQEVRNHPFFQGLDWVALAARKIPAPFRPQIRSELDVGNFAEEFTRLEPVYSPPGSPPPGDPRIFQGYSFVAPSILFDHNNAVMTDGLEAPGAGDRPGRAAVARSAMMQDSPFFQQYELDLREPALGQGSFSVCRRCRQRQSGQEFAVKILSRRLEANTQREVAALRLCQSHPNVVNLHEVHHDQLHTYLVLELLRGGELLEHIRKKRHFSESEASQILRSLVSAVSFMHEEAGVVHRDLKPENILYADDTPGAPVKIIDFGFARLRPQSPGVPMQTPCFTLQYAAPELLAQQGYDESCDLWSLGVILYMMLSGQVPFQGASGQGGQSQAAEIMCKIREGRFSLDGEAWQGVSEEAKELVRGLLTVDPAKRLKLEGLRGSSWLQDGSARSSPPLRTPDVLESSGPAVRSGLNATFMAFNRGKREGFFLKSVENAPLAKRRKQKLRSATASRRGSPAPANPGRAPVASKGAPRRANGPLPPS
T9 sequence (Q8NE63 whole entry): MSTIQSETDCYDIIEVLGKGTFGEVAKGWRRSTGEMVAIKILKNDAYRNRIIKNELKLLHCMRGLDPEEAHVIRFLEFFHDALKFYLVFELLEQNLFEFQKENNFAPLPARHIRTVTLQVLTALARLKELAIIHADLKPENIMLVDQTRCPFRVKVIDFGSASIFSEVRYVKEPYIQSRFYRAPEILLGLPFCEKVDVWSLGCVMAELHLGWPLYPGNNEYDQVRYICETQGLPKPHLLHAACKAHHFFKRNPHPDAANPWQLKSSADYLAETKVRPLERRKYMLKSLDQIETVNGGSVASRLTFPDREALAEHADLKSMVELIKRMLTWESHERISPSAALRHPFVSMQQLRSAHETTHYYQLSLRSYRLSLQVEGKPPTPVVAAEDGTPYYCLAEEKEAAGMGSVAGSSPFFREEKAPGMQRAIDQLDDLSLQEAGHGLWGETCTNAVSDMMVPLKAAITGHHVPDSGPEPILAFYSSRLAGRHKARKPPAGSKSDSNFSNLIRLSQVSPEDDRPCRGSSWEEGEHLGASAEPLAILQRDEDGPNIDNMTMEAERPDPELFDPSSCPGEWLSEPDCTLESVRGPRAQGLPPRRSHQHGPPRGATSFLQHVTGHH
T11 sequence (O14920 whole entry): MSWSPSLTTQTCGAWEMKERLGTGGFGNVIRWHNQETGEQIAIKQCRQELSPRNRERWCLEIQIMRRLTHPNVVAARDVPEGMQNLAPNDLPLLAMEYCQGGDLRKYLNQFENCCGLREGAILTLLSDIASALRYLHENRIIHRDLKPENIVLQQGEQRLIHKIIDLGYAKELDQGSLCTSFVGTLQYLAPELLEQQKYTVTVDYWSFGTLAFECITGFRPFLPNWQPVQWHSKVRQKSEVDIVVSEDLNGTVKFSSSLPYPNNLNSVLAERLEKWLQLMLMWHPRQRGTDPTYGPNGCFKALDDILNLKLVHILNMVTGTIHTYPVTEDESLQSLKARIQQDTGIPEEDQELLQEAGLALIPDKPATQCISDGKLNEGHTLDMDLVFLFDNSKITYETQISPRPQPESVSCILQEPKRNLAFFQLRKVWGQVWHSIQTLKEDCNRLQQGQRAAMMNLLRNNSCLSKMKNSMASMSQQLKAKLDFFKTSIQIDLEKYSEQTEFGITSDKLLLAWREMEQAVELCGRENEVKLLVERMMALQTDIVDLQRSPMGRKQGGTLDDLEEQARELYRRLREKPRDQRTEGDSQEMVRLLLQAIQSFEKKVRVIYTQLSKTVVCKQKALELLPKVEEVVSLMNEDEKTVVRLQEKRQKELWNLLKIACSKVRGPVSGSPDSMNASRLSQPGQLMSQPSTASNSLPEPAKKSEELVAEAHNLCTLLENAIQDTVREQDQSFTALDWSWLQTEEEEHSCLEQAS
T10 sequence (P54762 18-984): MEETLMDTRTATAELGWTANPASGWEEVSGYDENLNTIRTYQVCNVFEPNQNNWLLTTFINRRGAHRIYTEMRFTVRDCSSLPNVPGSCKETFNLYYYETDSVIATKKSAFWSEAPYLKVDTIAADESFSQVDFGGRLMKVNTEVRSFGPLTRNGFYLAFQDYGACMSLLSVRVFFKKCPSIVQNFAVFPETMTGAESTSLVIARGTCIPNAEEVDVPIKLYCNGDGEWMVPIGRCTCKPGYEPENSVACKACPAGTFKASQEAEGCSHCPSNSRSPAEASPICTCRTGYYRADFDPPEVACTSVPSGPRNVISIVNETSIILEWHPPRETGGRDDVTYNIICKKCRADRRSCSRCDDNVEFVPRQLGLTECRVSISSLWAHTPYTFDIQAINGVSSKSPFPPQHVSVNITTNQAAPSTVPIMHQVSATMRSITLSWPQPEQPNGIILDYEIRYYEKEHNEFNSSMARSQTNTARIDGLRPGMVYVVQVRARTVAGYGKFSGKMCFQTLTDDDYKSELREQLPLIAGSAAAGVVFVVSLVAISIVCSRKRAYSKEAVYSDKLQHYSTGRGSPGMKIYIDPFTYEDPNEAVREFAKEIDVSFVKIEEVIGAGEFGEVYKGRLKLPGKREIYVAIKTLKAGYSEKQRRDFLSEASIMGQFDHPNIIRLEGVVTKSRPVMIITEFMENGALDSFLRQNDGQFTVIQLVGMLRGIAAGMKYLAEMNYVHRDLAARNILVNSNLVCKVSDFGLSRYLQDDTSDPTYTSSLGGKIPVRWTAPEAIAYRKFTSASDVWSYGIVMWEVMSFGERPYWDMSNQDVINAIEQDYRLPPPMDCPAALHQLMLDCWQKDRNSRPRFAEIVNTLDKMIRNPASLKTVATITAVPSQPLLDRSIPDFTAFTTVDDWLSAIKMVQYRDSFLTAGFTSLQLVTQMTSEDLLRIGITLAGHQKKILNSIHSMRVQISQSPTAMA

Structure (SMILES): c1cc(CC2CCOCC2)n2nc(Nc3ccc4c(NC5CCOCC5)n[nH]c4c3)nc2c1 [CC-509, [3-(2H-3,4,5,6-tetrahydropyran-4-ylamino)(1H-indazol-6-yl)][5-(2H-3,4,5,6-tetrahydropyran-4-ylmethyl)(2H-1,2,4-triazolo[1,5-a]pyridin-2-yl)]amine]
- remaining activity at 3 µM [1]: 102%
- remaining activity at 3 µM [2]: 99%
- remaining activity at 3 µM [3]: 94%
- remaining activity at 3 µM [4]: 91%
- remaining activity at 3 µM [5]: 68%
- remaining activity at 3 µM [6]: 89%
- remaining activity at 3 µM [7]: 70%
- remaining activity at 3 µM [8]: 19%
- remaining activity at 3 µM [9]: 100%
- remaining activity at 3 µM [10]: 41%
- remaining activity at 3 µM [11]: 99%
- IC50 [12]: 0.61 ± 0.19 µM
- remaining activity at 3 µM [13]: 81%

Structure (SMILES): COc1cc(Nc2ncc(F)c(Nc3ccc4c(n3)NC(=O)C(C)(C)O4)n2)cc(OC)c1OC [R406, reference compound]
- effect in the PCA model [14]: statistically significant effect
